From ChEMBL document CHEMBL1140845, “Synthesis of deoxygenated alpha(1-->5)-linked arabinofuranose disaccharides as substrates and inhibitors of arabinosyltransferases of Mycobacterium tuberculosis” (Bioorg Med Chem, 2009) come the findings set out here.

Activity calls are given as the source filed them. The calls are words filed in the database; no cut-off is given here.

For this assay, the system named is Mycobacterium tuberculosis. Nature of the assay: Antimycobacterial activity against multidrug resistant Mycobacterium tuberculosis H37Ra at 12.8 to 128 ug/mL. Type of assay: functional, organism-based.

As for `CCCCCCCCO[C@H]1O[C@H](CO[C@H]2O[C@H](CO)[C@@H](O)[C@@H]2O)[C@@H](O)[C@@H]1F`, the result was Active. On to `CCCCCCCCO[C@@H]1C[C@H](O)[C@@H](CO[C@H]2O[C@H](CO)[C@@H](O)[C@@H]2O)O1`, for which the result was Active. For the compound `CCCCCCCCO[C@H]1O[C@H](CO[C@H]2O[C@H](CO)[C@@H](O)[C@@H]2O)C[C@@H]1O`, the result was Active.
